Data: patent US9381173B2, “Isolated stereoisomeric forms of (S)2-N(3-O-(propan 2-Ol)-1-propyl-4-hydroxybenzene)-3-phenylpropylamide” (Novaremed Ltd., priority 2011, dated 2016)

Assays:
[1] = test system: spinal nerve ligation (SNL or Chung) model for neuropathic pain in rats; experiment: Spinal nerve ligation (Chung) model, Von Frey test for mechanical allodynia; assay type: in vivo; conditions: for delta force right minus left leg, Day 14 Pretreatment / mean Von Frey force, left operated leg, Day 14 Pretreatment: before first dose; for difference (delta) force between right healthy leg and left operated leg, Baseline: before operation; for mean Von Frey force required for withdrawal of the left operated leg, Baseline: day -1, before operation
Protocol: The antinociceptive and analgesic activity of E1 in a spinal nerve ligation (SNL or Chung) model for neuropathic pain in rats was evaluated.
On study day 0, all animals underwent Chung surgery, which consisted of an operation where the left L5-L6 spinal nerves were isolated and cut. Fourteen days post surgery the animals were selected using pain threshold results from the Von Frey test. Only animals that indicated signs of mechanical allodynia were included in the study. After the selection process, the animals were grouped and Test Items were administered via IP. The pain response was measured using Von Frey methodology at 2, 5 and 24 hours after Test Item administration on study day 14, and at 2, 5, 24 and 48 hours on study day 21 after 7 days of Test Item administration.
Species: 50 SD young adult male rats, 225-260 g at study initiation (Harlan Laboratories, Israel. Ltd.)
Neuropathic Pain Induction: While under anesthesia using ketamine/xylazine sodium and after the area was shaved, the rat was placed in a prone position and the left paraspinal muscles were separated from the spinous process at the L4-S2 levels. The L6 vertebral transverse process was carefully removed with a small rongeur to visually identify the L5-L6 spinal nerves. The left L5-L6 spinal nerves were cut. The muscle was then closed with 4-0 silk sutures and the skin was closed by a clamp. Following surgery, the rats were returned to the cage and remained under a heating lamp until they awoke.
Inclusion/Exclusion Criteria for Pre-Selection: On post-operative day 14, animals were tested for mechanical allodynia using Von Frey methodology prior to being placed in their experimental groups. Only animals with a pain threshold of ≦26 g for the operated leg were included in the study. In order to form homogenous treatment groups and to adhere to randomization, all the operated rats were grouped according to inclusion/exclusion criteria.
The Von Frey test was performed prior to Test Items' administrations (pre-TI injection) and at 2 and 5 hours after TI administration (post-TI injection) on study days 14 and 21.
Von Frey test was performed prior to TI's administration on study day 15 (24 hours post-TI's administration on study day 14) and on study days 22 and 23 (24 and 48 hours respectively post-TI's administration on study day 21).
Pain Response Evaluation: Pain response was evaluated using Von Frey test for mechanical allodynia.
The Von Frey test for mechanical allodynia is based on applying short pulses of pressure that are not painful to a naive animal. In fact, in order to achieve paw withdrawal from a naive animal, the pressure applied is sometimes higher than 60 g. This often requires the researcher to apply enough pressure with the Von Frey filament to actually lift the paw of the naive animal. However, in disease conditions, the animals are sensitive to much lower pressure and experience pain as a result of a normally non-painful stimulus.
Mechanical Allodynia Evaluation (Von Frey Testing): Allodynic response to tactile stimulation was assessed using the Von Frey apparatus (Touch®).
The rats were placed in an enclosure and positioned on a metal mesh surface, but allowed to move freely. The rats' cabins were covered with red cellophane to diminish environmental disturbances. The test began after cessation of exploratory behavior. The set of Von Frey monofilaments provide an approximate logarithmic scale of actual force and a linear scale of perceived intensity as provided by the manufacturer of the Von Frey apparatus (Ugo Basil). The operating principle: When the tip of a fiber of given length and diameter is pressed against the skin at right angles, the force of application increases as long as the researcher continues to advance the probe until the fiber bends. After the fiber bends, the probe continues to advance, causing the fiber to bend more, but without additional force being applied to the paw. […]

[2] = Body weight in the Chung model study; assay type: in vivo, rats; conditions: for Mean group body weight Day 14: before first administration; for Mean group body weight Day 7: before treatment; for Mean group body weight Baseline: study day -1, before surgery and treatment
Protocol: Body Weights: Body weight was measured at regular intervals on study days −1 for baseline values and seven days after the surgery (study day 7).

BLK = BLK (Homo sapiens, UniProt P51451); experiment: BLK mobility-shift kinase assay (Caliper LabChip 3000); assay type: biochemical; conditions: 5 concentrations, duplicate wells; listed as (S,S) enantiomer
Chain of BLK (P51451 whole entry, species assumed): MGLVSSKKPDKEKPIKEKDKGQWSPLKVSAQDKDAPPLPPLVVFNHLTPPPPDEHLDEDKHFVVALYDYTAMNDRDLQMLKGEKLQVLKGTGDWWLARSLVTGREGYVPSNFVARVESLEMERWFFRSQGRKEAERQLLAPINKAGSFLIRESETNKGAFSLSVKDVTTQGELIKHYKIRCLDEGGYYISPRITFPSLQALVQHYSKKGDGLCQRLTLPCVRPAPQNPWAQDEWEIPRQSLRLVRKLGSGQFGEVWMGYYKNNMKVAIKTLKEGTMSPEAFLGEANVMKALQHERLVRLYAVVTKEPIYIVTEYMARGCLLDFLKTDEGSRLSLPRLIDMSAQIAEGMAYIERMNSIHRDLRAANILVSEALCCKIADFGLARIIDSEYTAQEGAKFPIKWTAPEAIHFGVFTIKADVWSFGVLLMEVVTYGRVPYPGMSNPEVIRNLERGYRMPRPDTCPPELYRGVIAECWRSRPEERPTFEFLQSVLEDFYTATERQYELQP
Protocol: (§1) Each compound and concentration was tested in duplicate wells.
(§2) Data points are the averages of duplicate wells. Error bars represent the mean±replicate % activity.

Lyn A = Lyn A (Homo sapiens, UniProt P07948); experiment: Lyn A mobility-shift kinase assay (Caliper LabChip 3000); assay type: biochemical; conditions: 5 concentrations, duplicate wells; listed as (S,S) enantiomer
Chain of Lyn A (P07948 whole entry, species assumed): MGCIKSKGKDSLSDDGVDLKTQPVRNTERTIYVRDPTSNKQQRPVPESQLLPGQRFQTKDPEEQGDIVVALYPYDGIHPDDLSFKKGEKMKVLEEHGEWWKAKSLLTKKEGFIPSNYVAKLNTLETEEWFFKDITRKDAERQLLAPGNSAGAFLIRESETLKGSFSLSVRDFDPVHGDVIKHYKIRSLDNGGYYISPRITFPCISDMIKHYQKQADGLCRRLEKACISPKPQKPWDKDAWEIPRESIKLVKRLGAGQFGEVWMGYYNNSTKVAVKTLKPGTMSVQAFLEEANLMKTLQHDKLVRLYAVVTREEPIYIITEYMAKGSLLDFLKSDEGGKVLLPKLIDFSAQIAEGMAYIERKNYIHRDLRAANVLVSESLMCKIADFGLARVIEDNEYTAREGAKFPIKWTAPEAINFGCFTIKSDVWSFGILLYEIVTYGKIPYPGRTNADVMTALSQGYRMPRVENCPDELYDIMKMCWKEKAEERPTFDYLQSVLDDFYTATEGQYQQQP
Protocol: as §1, §2

Lyn B = Lyn B (Homo sapiens, UniProt P07948); experiment: Lyn B mobility-shift kinase assay (Caliper LabChip 3000); assay type: biochemical; conditions: 5 concentrations, duplicate wells; listed as (S,S) enantiomer
Chain of Lyn B (P07948 1-491 isoform P07948-2, species assumed): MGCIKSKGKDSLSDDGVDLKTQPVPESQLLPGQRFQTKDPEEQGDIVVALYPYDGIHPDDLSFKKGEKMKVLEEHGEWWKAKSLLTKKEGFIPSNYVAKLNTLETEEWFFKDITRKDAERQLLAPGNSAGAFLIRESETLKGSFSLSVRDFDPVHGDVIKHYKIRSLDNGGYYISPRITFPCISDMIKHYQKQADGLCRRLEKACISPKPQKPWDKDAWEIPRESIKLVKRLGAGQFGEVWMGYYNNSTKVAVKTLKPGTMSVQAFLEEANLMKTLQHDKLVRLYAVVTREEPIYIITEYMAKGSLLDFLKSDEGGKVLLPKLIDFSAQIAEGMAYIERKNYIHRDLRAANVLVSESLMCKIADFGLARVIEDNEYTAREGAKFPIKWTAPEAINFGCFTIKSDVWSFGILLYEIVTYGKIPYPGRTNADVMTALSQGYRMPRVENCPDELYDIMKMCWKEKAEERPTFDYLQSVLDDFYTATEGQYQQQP
Protocol: as §1, §2

[3] = 7.5 mg/kg IP, day 14, 2, 5 and 24 hours
[4] = 7.5 mg/kg IP, study day 14, 2, 5 and 24 hours
[5] = 15 mg/kg IP once daily day 14-21 (group 4)
[6] = 15 mg/kg IP, day 14, 5 and 24 hours
[7] = 15 mg/kg IP, study day 14, 5 and 24 hours
[8] = 30 mg/kg IP once daily day 14-21 (group 3)
[9] = 30 mg/kg IP once daily from day 14 (group 3)
[10] = 30 mg/kg IP, day 21, 2, 5 and 24 hours

modulation of BLK tyrosine kinase activity (BLK): activated | modulation of LynA tyrosine kinase activity (Lyn A): activated | modulation of LynB tyrosine kinase activity (Lyn B): had no effect
Structure (SMILES): CC(O)COCC(Cc1ccc(O)cc1)NC(=O)CCc1ccccc1 (single isomer, unassigned) [E1]
delta force right minus left leg, Day 14 Pretreatment ([1]; 7.5 mg/kg IP (group 5)): 50.10 ± 0.64 g | mean Von Frey force, left operated leg, Day 14 Pretreatment ([1]; 7.5 mg/kg IP (group 5)): 9.90 ± 0.64 g | difference (delta) force between right healthy leg and left operated leg, Baseline ([1]; 7.5 mg/kg IP (group 5)): 0.00 ± 0.00 g | mean Von Frey force required for withdrawal of the left operated leg, Baseline ([1]; 7.5 mg/kg IP (group 5)): 56.60 ± 3.40 g | inhibition of allodynia compared to the pretreatment value of delta withdrawal force [1, 3]: inhibited allodynia | pain relief activity, delta withdrawal force between the two legs vs. Vehicle [1, 3]: significant pain relief activity | inhibition of allodynia compared to the pretreatment value of delta withdrawal force ([1]; 7.5 mg/kg IP, day 21, 5 hours): inhibited allodynia | pain relief activity, delta withdrawal force between the two legs vs. Vehicle ([1]; 7.5 mg/kg IP, day 21 pretreatment, 2, 5, 24 and 48 hours): significant pain relief activity | inhibition of allodynia (Von Frey) compared to the Vehicle control [1, 4]: effectively inhibited allodynia | inhibition of allodynia (Von Frey) compared to the pretreatment value [1, 4]: inhibited allodynia | inhibition of allodynia (Von Frey) compared to the pretreatment value ([1]; 7.5 mg/kg IP, study day 21, 5 hours): inhibited allodynia | inhibition of allodynia (Von Frey) compared to the Vehicle control ([1]; 7.5 mg/kg IP, study day 21 pretreatment and 2, 5, 24 and 48 hours): inhibited allodynia | conclusion: pain analgesic item, parameters of mechanical allodynia ([1]; 7.5 mg/kg, 2, 5 and 24 hours day 14, 2, 5, 24 and 48 hours day 21): effective | delta force right minus left leg, Day 14 Post-treatment 2 hours ([1]; 15 mg/kg IP (group 4)): 48.20 ± 5.67 g | delta force right minus left leg, Day 14 Post-treatment 5 hours ([1]; 15 mg/kg IP (group 4)): 29.20 ± 6.66 g | mean Von Frey force, left operated leg, Day 14 Post-treatment 2 hours ([1]; 15 mg/kg IP (group 4)): 11.80 ± 5.67 g | delta force right minus left leg, Day 14 Pretreatment ([1]; 15 mg/kg IP (group 4)): 50.20 ± 0.90 g | mean Von Frey force, left operated leg, Day 14 Pretreatment ([1]; 15 mg/kg IP (group 4)): 9.80 ± 0.90 g | difference (delta) force between right healthy leg and left operated leg, Baseline ([1]; 15 mg/kg IP (group 4)): 0.00 ± 0.00 g | mean Von Frey force required for withdrawal of the left operated leg, Baseline ([1]; 15 mg/kg IP (group 4)): 56.60 ± 3.40 g | delta force right minus left leg, Day 21 Post-treatment 48 hours [1, 5]: 39.80 ± 4.80 g | mean Von Frey force, left operated leg, Day 21 Post-treatment 48 hours [1, 5]: 20.20 ± 4.80 g | inhibition of allodynia compared to the pretreatment value of delta withdrawal force [1, 6]: inhibited allodynia | pain relief activity, delta withdrawal force between the two legs vs. Vehicle [1, 6]: significant pain relief activity | pain relief activity, delta withdrawal force between the two legs vs. Vehicle ([1]; 15 mg/kg IP, day 21 pretreatment, 2, 5 and 24 hours): significant pain relief activity | inhibition of allodynia (Von Frey) compared to the Vehicle control [1, 7]: inhibited allodynia | inhibition of allodynia (Von Frey) compared to the pretreatment value [1, 7]: inhibited allodynia | inhibition of allodynia (Von Frey) compared to the Vehicle control ([1]; 15 mg/kg IP, study day 14, 2 hours): did not inhibit allodynia | inhibition of allodynia (Von Frey) compared to the Vehicle control ([1]; 15 mg/kg IP, study day 21, 48 hours): less effective | inhibition of allodynia (Von Frey) compared to the Vehicle control ([1]; 15 mg/kg IP, study day 21 pretreatment, 2, 5 and 24 hours): inhibited allodynia | conclusion: pain analgesic item, parameters of mechanical allodynia ([1]; 15 mg/kg, 5 and 24 hours day 14, 2, 5 and 24 hours day 21): effective | delta force right minus left leg, Day 14 Post-treatment 2 hours ([1]; 30 mg/kg IP (group 3)): 46.80 ± 1.70 g | delta force right minus left leg, Day 14 Post-treatment 24 hours ([1]; 30 mg/kg IP (group 3)): 34.80 ± 6.25 g | mean Von Frey force, left operated leg, Day 14 Post-treatment 2 hours ([1]; 30 mg/kg IP (group 3)): 13.20 ± 1.70 g | mean Von Frey force, left operated leg, Day 14 Post-treatment 5 hours ([1]; 30 mg/kg IP (group 3)): 30.60 ± 5.10 g | delta force right minus left leg, Day 14 Pretreatment ([1]; 30 mg/kg IP (group 3)): 49.50 ± 1.06 g | mean Von Frey force, left operated leg, Day 14 Pretreatment ([1]; 30 mg/kg IP (group 3)): 10.50 ± 1.06 g | difference (delta) force between right healthy leg and left operated leg, Baseline ([1]; 30 mg/kg IP (group 3)): 0.00 ± 0.00 g | mean Von Frey force required for withdrawal of the left operated leg, Baseline ([1]; 30 mg/kg IP (group 3)): 60.00 ± 0.00 g | delta force right minus left leg, Day 21 Post-treatment 48 hours [1, 8]: 51.10 ± 0.82 g | mean Von Frey force, left operated leg, Day 21 Post-treatment 2 hours [1, 8]: 19.40 ± 1.80 g | mean Von Frey force, left operated leg, Day 21 Post-treatment 5 hours [1, 8]: 22.90 ± 4.64 g | mean Von Frey force, left operated leg, Day 21 Post-treatment 24 hours [1, 8]: 17.50 ± 2.48 g | mean Von Frey force, left operated leg, Day 21 Post-treatment 48 hours [1, 8]: 8.90 ± 0.82 g | delta force right minus left leg, Day 21 Pretreatment [1, 9]: 47.00 ± 1.76 g | mean Von Frey force, left operated leg, Day 21 Pretreatment [1, 9]: 13.00 ± 1.76 g | inhibition of allodynia compared to the pretreatment value of delta withdrawal force ([1]; 30 mg/kg IP, day 14, 5 hours): inhibited allodynia | pain relief activity, delta withdrawal force between the two legs vs. Vehicle ([1]; 30 mg/kg IP, day 14, 5 hours): significant pain relief activity | inhibition of allodynia compared to the pretreatment value of delta withdrawal force [1, 10]: inhibited allodynia | pain relief activity, delta withdrawal force between the two legs vs. Vehicle [1, 10]: significant pain relief activity | inhibition of allodynia (Von Frey) compared to the pretreatment value ([1]; 30 mg/kg IP, study day 14, 5 hours): inhibited allodynia | inhibition of allodynia (Von Frey) compared to the pretreatment value ([1]; 30 mg/kg IP, study day 21, 2, 5 and 24 hours): inhibited allodynia | conclusion: pain analgesic item, parameters of mechanical allodynia ([1]; 30 mg/kg, at 5 post administration day 14, 2, 5 and 24 hours day 21): effective | duration of analgesic effect post administration ([1]; summary statement): more than 24 hours | behaviour of the operated paw on the Von Frey apparatus ([1]; treated animals): laid completely the operated paw on the metal mesh surface | Mean group body weight Day 14 ([2]; 7.5 mg/kg IP (group 5)): 287.60 ± 5.14 g | Mean group body weight Day 7 ([2]; 7.5 mg/kg IP (group 5)): 258.90 ± 4.41 g | Mean group body weight Baseline ([2]; 7.5 mg/kg IP (group 5)): 245.80 ± 2.54 g | Mean group body weight Day 21 ([2]; 7.5 mg/kg IP once daily from day 14 (group 5)): 303.80 ± 6.26 g | Mean group body weight Day 14 ([2]; 15 mg/kg IP (group 4)): 289.80 ± 3.27 g | Mean group body weight Day 7 ([2]; 15 mg/kg IP (group 4)): 259.20 ± 3.29 g | Mean group body weight Baseline ([2]; 15 mg/kg IP (group 4)): 245.00 ± 2.80 g | Mean group body weight Day 21 ([2]; 15 mg/kg IP once daily from day 14 (group 4)): 298.50 ± 3.27 g | Mean group body weight Day 14 ([2]; 30 mg/kg IP (group 3)): 288.70 ± 5.51 g | Mean group body weight Day 7 ([2]; 30 mg/kg IP (group 3)): 261.20 ± 4.45 g | Mean group body weight Baseline ([2]; 30 mg/kg IP (group 3)): 245.20 ± 3.19 g | Mean group body weight Day 21 [2, 9]: 303.30 ± 6.01 g
